Paper PMC4489529 (Antiviral chemistry & chemotherapy, 2014)
Read-outs that look alike come from different tables or passages of the source.

Key:
[1] = pH 7.4, reported for the parent compound; cited from earlier work
[2] = in vitro; settings: human, Caco-2, pH 7.4
[3] = system: Caco-2 cells; experiment: Caco-2 assay to assess permeability; settings: divalerate prodrug versus parent drug
[4] = system: Caco-2 cells
[5] = buffer
[6] = system: U373-MAGI-CXCR4CEM cells; settings: at 5 μM, data not shown

Row | recovery at 60 min, 10 μM [2] | Permeability of prodrug relative to parent compound [3] | Permeability ([4]; Caco-2) | Permeability ([4]; Caco-2, pH 7.4) | Half-life at pH 2.0 [5] | Half-life at pH 4.65 [5] | Half-life at pH 7.4 [5] | Permeability of prodrug relative to parent compound ([4]; Caco-2) | SMILES | Half-life at pH 7.4 [1] | Decrease in cell proliferation [6]
1 | 91% |  |  |  |  |  |  |  | Nc1ncn([C@H]2C[C@H](O)[C@@H](CO)O2)c(=O)n1 [Decitabine, 5-aza-2′-deoxycytidine] | 12.9 ±0.9 h | 
2 |  | 4.2 fold | 2.1e-06 cm/s | 2.1 10^−6 cm/s | 85 h | 247 h | 135 h |  | CCCCC(=O)OC[C@H]1O[C@@H](n2ccc(N)nc2=O)C(F)(F)[C@@H]1OC(=O)CCCC [Gemcitabine divalerate, gemcitabine divalerate] |  | 
3 | 111% |  |  |  |  |  |  |  | Nc1ccn([C@@H]2O[C@H](CO)[C@@H](O)C2(F)F)c(=O)n1 [Gemcitabine, 2′,2′-difluoro-2′-deoxycytidine] |  | 
4 |  |  | 3.2e-06 cm/s | 3.2 10^−6 cm/s | 17 h | 36 h | 28 h | fourfold higher | CCCCC(=O)OC[C@H]1O[C@@H](n2cnc(N)nc2=O)C[C@@H]1OC(=O)CCCC [Decitabine divalerate, decitabine divalerate] |  | less than 5%
